Experimental data from patent US10370376B2, “Amorphous substance of Idelalisib and preparation method therefor” (Alnova Pharmaceuticals, Ltd., priority 2015, dated 2019).
In brackets after ≈: the same amount, converted by molar mass. Blank lines part the entries; values can stand above or below the compound they belong to.

What was measured:
Type in all cases: physicochemical
[1] = Determination of apparent solubility (saturation solubility by HPLC) in diluents of different pH; conditions: for solubility at 12 h: 37 °C, thermodynamic from solid; for solubility at 12 h / Apparent solubility: shaken 12 hours, average of 3; for Apparent solubility: 37° C.
Method: The crystalline Idelalisib, Form I, was prepared according to the method of Example 1 of U.S. Pat. No. 8,865,730.
Determination of apparent solubility: weigh a certain amount of the sample into a 1.8 mL of centrifuge tube, add 1 mL of the specified pH diluent, cap tightly. Each solution was prepared with 3 replicates (the amount of the added sample must be much larger than of which can be formed a saturated solution at different pH, details were shown in Table 1), and then 1 mL of the designated pH diluent was added. Then the centrifuge tube containing the test solution was shaken in a water bath at 37° C.±0.5° C. for 12 hours, let Stand in an oven at 37° C. for 2 hours. The upper lay was filtered through a […] microporous membrane. Pipette 200 uL of the filtrated solution into a vial containing 200 uL of acetonitrile, shaken to mix. Label it as test solution. Inject 2 uL of the test solution to HPLC system, record the peak area of main peak. Inject the reference standard solution following the same procedure as the test solution, record the peak area of the main peak of reference standard. According to the main peak area of the test solution and the reference solution, the concentration of the reference solution and the concentration of the test solution are calculated by external standard method. Then the saturation solubility will be obtained by multiplying concentration by the dilution factor of 2. The final result of saturation solubility is the average result of three parallel test samples.
Preparation of reference standard solution: accurately weight about 25 mg of Idelalisib (Form I) into a 25 mL of volumetric flask, dissolve and dilute to the volume with diluent (acetonitrile:water=1:1). The concentration of the reference standard is about 1 mg/mL.
Preparation of Diluents of Different pH:
(1) pH=1.0 diluent: Add 9 mL of concentrated HCl to a 1000 mL of volumetric flask, diluted to the volume with water.
(2) pH=2.0 diluent: Solution A: Transfer 16.6 mL of phosphoric acid to a 100 mL volumetric flask, dilute to the volume with water, shake to mix. Solution B: Weigh and transfer 71.63 g of […] to a 1000 mL of volumetric flask, dilute to the volume with water, dissolve and mix well. Mix 72.5 mL of solution A and 27.5 mL of solution B.
(3) pH=3.0 diluent: transfer 50 mL of glacial acetic acid to a 1000 mL of volumetric flask, add 800 mL of water, adjust pH to 3.0 with lithium hydroxide, then diluted to the volume with water.
(4) pH=4.0 diluent: weigh and transfer 7.7 g of ammonium acetate, dissolve with 50 mL of water, add 6 mL of glacial acetic acid, then diluted to 100 mL with water.
(5) pH=5.6 diluent: Phthalate buffer (pH 5.6): Transfer 10 g of potassium hydrogen phthalate, add 900 mL of water, stir to dissolve, adjust pH to 5.6 with sodium hydroxide solution (or diluted hydrochloric acid if necessary) then diluted to the volume with water.
(6) pH=6.8 diluent: mix 250 mL of 0.2 mol/L potassium dihydrogen phosphate solution and 118 mL of 0.2 mol/L sodium hydroxide solution, diluted to 1000 mL with water, shaken to mix.
(7) pH=7.4 diluent: transfer 1.36 g of potassium dihydrogen phosphate, add 79 mL of 0.1 mol/L sodium hydroxide solution, diluted to 200 mL with water.

[2] = as above; conditions: pH 4.5 diluent, 37° C., shaken 12 hours, average of 3
[3] = Accelerated stability test of the amorphous Idelalisib (HPLC and XRPD); conditions: for Crystalline (XRPD) / Relevant substances (Total impurities %): Temperature 40° C. ± 2° C., Humidity 75% ± 5%
Method: Experiment conditions: temperature 40° C.±2° C., humidity 75%±5% The substance was detected by HPLC.

[4] = Impact factor test of the amorphous Idelalisib (high temperature, high humidity; HPLC and XRPD)
[5] = accelerated test conditions after 6 months
[6] = high temperature, high humidity after 10 days

Apparent solubility compared with that of the Form I ([1]; at each pH (1.0 to 7.4)): significantly higher
solubility at 12 h ([1]; pH 1.0 diluent (dilute HCl), pH 1, simulated gastric fluid, pH 1.0 diluent): 52700 µg/mL (≈ 127000 µM)
Apparent solubility ([1]; pH 2.0 diluent): 7037.94 µg/mL
Apparent solubility ([1]; pH 3.0 diluent): 1622.95 µg/mL
solubility at 12 h ([1]; pH 5.6 diluent (phthalate buffer), pH 5.6, aqueous buffer, pH 5.6 diluent): 75.8 µg/mL (≈ 182 µM)
solubility at 12 h ([1]; pH 6.8 diluent (phosphate buffer), pH 6.8, aqueous buffer, pH 6.8 diluent): 75.3 µg/mL (≈ 181 µM)
solubility at 12 h ([1]; pH 7.4 diluent (phosphate buffer), pH 7.4, aqueous buffer, pH 7.4 diluent): 74.3 µg/mL (≈ 179 µM)
Apparent solubility [2]: 694.19 µg/mL
Relevant substances (Total impurities %) ([3]; 0 month): 0.12%
Relevant substances (Total impurities %) ([3]; 1 month): 0.14%
Relevant substances (Total impurities %) ([3]; 2 months): 0.15%
Relevant substances (Total impurities %) ([3]; 3 months): 0.16%
Relevant substances (Total impurities %) ([3]; 6 months): 0.19%
Changes in the relevant substances [3, 5]: no significant changes
Relevant substances (Total impurities %) ([4]; 0 day): 0.12%
Relevant substances (Total impurities %) ([4]; 5 days, Humidity 75% ± 5%): 0.14%
Relevant substances (Total impurities %) ([4]; 5 days, Humidity 90% ± 5%): 0.16%
Relevant substances (Total impurities %) ([4]; 5 days, Temperature 40° C. ± 2° C.): 0.13%
Relevant substances (Total impurities %) ([4]; 5 days, Temperature 60° C. ± 2° C.): 0.14%
Relevant substances (Total impurities %) ([4]; 10 days, Humidity 75% ± 5%): 0.14%
Relevant substances (Total impurities %) ([4]; 10 days, Humidity 90% ± 5%): 0.16%
Relevant substances (Total impurities %) ([4]; 10 days, Temperature 40° C. ± 2° C.): 0.14%
Relevant substances (Total impurities %) ([4]; 10 days, Temperature 60° C. ± 2° C.): 0.16%
Changes in the relevant substances [4, 6]: no significant changes
SMILES: CC[C@H](Nc1ncnc2[nH]cnc12)c1nc2cccc(F)c2c(=O)n1-c1ccccc1 [amorphous Idelalisib, 5-fluoro-3-phenyl-2-[(1S)-1-(9H-purin-6-ylamino)propyl]-4(3H)-quinazolinone]
Crystalline (XRPD) ([3]; 0 month): There is no peak of crystalline Idelalisib
Crystalline (XRPD) ([3]; 1 month): There is no peak of crystalline Idelalisib
Crystalline (XRPD) ([3]; 2 months): There is no peak of crystalline Idelalisib
Crystalline (XRPD) ([3]; 3 months): There is no peak of crystalline Idelalisib
Crystalline (XRPD) ([3]; 6 months): There is no peak of crystalline Idelalisib
Crystallization of Idelalisib [3, 5]: no crystallization of Idelalisib was observed
Crystalline (XRPD) ([4]; 0 day): There is no peak of crystalline Idelalisib
Crystalline (XRPD) ([4]; 5 days, all four conditions (40° C., 60° C., humidity 75%, 90%)): There is no peak of crystalline Idelalisib
Crystalline (XRPD) ([4]; 10 days, all four conditions (40° C., 60° C., humidity 75%, 90%)): There is no peak of crystalline Idelalisib
Crystallization of Idelalisib [4, 6]: no crystallization of Idelalisib was observed

Apparent solubility ([1]; pH 1.0 diluent): 34580.16 µg/mL
Apparent solubility ([1]; pH 2.0 diluent): 1756.55 µg/mL
Apparent solubility ([1]; pH 3.0 diluent): 317.47 µg/mL
Apparent solubility ([1]; pH 5.6 diluent): 46.91 µg/mL
Apparent solubility ([1]; pH 6.8 diluent): 47.35 µg/mL
Apparent solubility ([1]; pH 7.4 diluent): 45.08 µg/mL
Apparent solubility [2]: 147.02 µg/mL
SMILES: CC[C@H](Nc1ncnc2[nH]cnc12)c1nc2cccc(F)c2c(=O)n1-c1ccccc1 [crystalline Idelalisib (Form I), 5-fluoro-3-phenyl-2-[(1S)-1-(9H-purin-6-ylamino)propyl]-4(3H)-quinazolinone, reference compound]
